≈ marks a conversion by molar mass, not a printed value. Where “and” joins values, the source holds several entries; their conditions need not be identical. Equal entries are not always repeated.
Assays:
B16 melanoma cells [1] = test: Anti-melanogenesis assay (melanin content); assay type: cell-based, mouse; settings: for Inhibition rate (100% − melanin synthesis): B16 cells; for IC50 melanin / IC50: B16 melanoma cells; for IC50: read-out: IC50 (melanin synthesis)
Method: (§1) This assay was performed as described by Arung et al.. The mouse melanoma cell line B16 was obtained from the Riken Bioresource Center Cell Bank (Tsukuba, Japan). The B16 melanoma cells were maintained in Eagle’s Minimal Essential Medium (EMEM, Nissui Chemical, Tokyo) supplemented with 10% (v/v) fetal bovine serum (FBS; Gibco, Carlsbad, CA, USA) and 0.09 mg/mL theophylline (Sigma-Aldrich, St. Louis, MO, USA). […] After 24 h, test samples were dissolved in DMSO (<0.2% per well) and sample solution were added to each well. Arbutin (Tokyo Kasei Kogyo, Tokyo) was used as a positive control. The cells were incubated for an additional 48 h, and then the medium was replaced with fresh medium containing each sample again. After 24 h, the melanin content and the cell viability were measured using a microplate reader (BioTek-ELX800, BioTek Instruments, Winooski, VT, USA) at 405 nm and 570 nm, respectively. Cell viability was measured using the MTT (3-(4,5-dimethylthiazol-2-yl)-2,5-diphenyltetrazolium bromide) method.

B16 melanoma cells [2] = test: Cell viability of B16 melanoma cells (MTT); settings: for Inhibition rate (100% − cell viability): B16 cells; for CC50 cell viability / CC50: B16 melanoma cells, MTT; for CC50: read-out: CC50 (cell viability)
Method: as §1

Propionibacterium acnes = test: Anti-bacterial assay (growth inhibition, MIC/MBC by broth microdilution); assay type: cell-based; settings: for Inhibition Rate (P. acnes growth): concentration 100 μg/mL; for activity against P. acnes (in words): at their maximum solubility
Method: The antibacterial assay was based mostly on the methods described by Tanaka et al. with slight modification. Propionibacterium acne (NBRC 107605) was used for the antibacterial assay. A single colony of the test strain was taken and 5 mL of Gifu anaerobic medium (GAM) broth (Nissui, Tokyo) was added to it. This culture was incubated at 37 °C for 30 h. It was then added to the bacterial suspension to prepare a bacterial concentration at 10^5 CFU/mL. The bacterial solution was used for the subsequent antibacterial assay. Each compound was dissolved in DMSO, and benzalkonium chloride (Wako) was used as a positive control. The plate was incubated at 37 °C for 30 h. Finally, bacterial growth was measured by a microplate reader at 630 nm. The MIC and MBC were evaluated by the standard broth microdilution method.

RBL-2H3 cells [3] = test: β-hexosaminidase release from IgE-stimulated RBL-2H3 mast cells; assay type: cell-based, rat; settings: 25 μg/mL
Method: (§2) The anti-allergy assay was based mostly on the methods described by Zhu et al. and Yun et al. with slight modification. Rat basophilic leukemia (RBL-2H3) cells were obtained from the Riken Bio-resource Center Cell Bank (Tsukuba, Japan). RBL-2H3 cells were incubated in EMEM medium containing 10% FBS and 1% antibiotics–antimycotics at 37 °C. The cells were seeded on a 96-well plate (2 × 10^5 cells/well). After 24 h of incubation, the medium was supplemented with 0.5 μg/mL anti-DNP (dinitrophenol) mouse immunoglobulin E (IgE) (Sigma-Aldrich). After an additional 24 h of incubation, the medium was replaced with 100 μL of Tyrode buffer. The sample dissolved in DMSO (<0.5% per well) was added, and the cell plate was incubated again for 30 min, then replaced with 100 μL of tyrode buffer containing 50 μg/mL DNP-bovine serum albumin (BSA) (Invitrogen, Carlsbad, CA, USA). After 1 h of incubation, 50 μL of the supernatant was collected from each well and mixed with 50 μL of substrate solution (p-nitrophenyl-N-acetyl-β-glucosaminide, 2 mM; Sigma-Aldrich) in a new 96-well plate. The mixture was incubated at room temperature on a shaker for 3 h. Finally, 100 μL of stop solution was added, and the absorbance was read at 405 nm. A parallel MTT experiment was performed to measure the cell viability. The MTT experiment was done exactly as described.

RBL-2H3 cells [4] = test: Cell viability of RBL-2H3 cells (parallel MTT); assay type: cell-based, rat; settings: 25 μg/ml, RBL-2H3 cells
Method: as §2

NHDF cells = test: Skin type I collagen synthesis promoting assay (ELISA, with MTT); assay type: cell-based, human; settings: fold of control
Method: The assay for measuring the promotion of skin collagen synthesis was described by Kishikawa et al.. Adult NHDF cells (Lonza, Tokyo) were routinely maintained in 10% FBS and 1% antibiotic-antimycotic (Invitrogen) in Dulbecco’s modified Eagle’s medium (DMEM, Wako). After growing to confluence, cells at a density of 5 × 10^3 cells/well were seeded on 96-well plates for 24 h before the treatment. The medium was replaced with a mixture of 1 μL of sample solution (DMSO < 0.5% per well) and 99 μL of DMEM supplemented with 0.5% FBS. After 72 h of cultivation, the amount of collagen in the medium was measured using a human type I collagen enzyme-linked immunosorbent assay (ELISA) kit (ACEL, Kanagawa, Japan). The amount of collagen production was calculated using a standard curve prepared by measurement by the same ELISA. The cells remaining in the 96-well plate were subjected to an MTT assay. Ascorbic acid (100 μM, Wako) was used as a positive control.

SMILES	Inhibition rate (100% − melanin synthesis) (B16 melanoma cells [1]; 1 μg/ml) [%]	Inhibition rate (100% − melanin synthesis) (B16 melanoma cells [1]; 2.5 μg/ml) [%]	Inhibition rate (100% − melanin synthesis) (B16 melanoma cells [1]; 5 μg/ml) [%]	Inhibition rate (100% − melanin synthesis) (B16 melanoma cells [1]; 10 μg/ml) [%]	IC50 melanin (B16 melanoma cells [1]) [µg/mL]	IC50 (B16 melanoma cells [1]) [µM]	Inhibition rate (100% − cell viability) (B16 melanoma cells [2]; 1 μg/ml) [%]	Inhibition rate (100% − cell viability) (B16 melanoma cells [2]; 2.5 μg/ml) [%]	Inhibition rate (100% − cell viability) (B16 melanoma cells [2]; 5 μg/ml) [%]	Inhibition rate (100% − cell viability) (B16 melanoma cells [2]; 10 μg/ml) [%]	CC50 cell viability (B16 melanoma cells [2]) [µg/mL]	CC50 (B16 melanoma cells [2]) [µM]	Inhibition Rate (P. acnes growth) (Propionibacterium acnes)	Inhibition Rate (β-hexosaminidase release) (RBL-2H3 cells [3]) [%]	Cell viability (RBL-2H3 cells [4]) [%]	CP/CV value (collagen production %/cell viability %) (NHDF cells; 5 μg/mL)	activity against P. acnes (in words) (Propionibacterium acnes)	CP/CV value (collagen production %/cell viability %) (NHDF cells; 10 μg/mL)	CP/CV value (collagen production %/cell viability %) (NHDF cells; 1 μg/mL)	also measured
COC(=O)[C@]12CCC(C)(C)C[C@@H]1C1=CC[C@@H]3[C@@]4(C)C[C@@H](O)[C@H](O)C(C)(C)C4CC[C@@]3(C)[C@]1(C)CC2 (stereo partly shown) [Compound 5, Methyl maslinate]	0.0 ± 4.4	1.6 ± 0.6	44.8 ± 4.3	68.2 ± 0.6	6.2 (≈ 12.7 µM)	12.8	4.7 ± 8.1	1.3 ± 5.2	12.1 ± 8.6	75.9 ± 0.5	8.4 (≈ 17.3 µM)	17.5	– (no inhibition)	8.5 ± 9.5	105.8 ± 1.1	1.2	–	–	–	–
COC(=O)[C@]12CC[C@@H](C)[C@H](C)[C@H]1C1=CC[C@@H]3[C@@]4(C)C[C@@H](O)[C@H](O)C(C)(C)[C@@H]4CC[C@@]3(C)[C@]1(C)CC2 [Compound 6, methyl corosolate]	0.0 ± 1.9	2.8 ± 4.5	32.7 ± 1.5	63.5 ± 2.7	7.8 (≈ 16 µM)	16.1	4.5 ± 13.7	10.5 ± 10.9	15.4 ± 5.1	59.4 ± 7.0	9.1 (≈ 18.7 µM)	18.7	77.9 ± 1.6%	2.4 ± 14.1	97.6 ± 14.1	2.4	active	3.4 and 3.6	–	–
C[C@H]1[C@H](C)CC[C@]2(C(=O)O)CC[C@]3(C)C(=CC[C@@H]4[C@@]5(C)CCC(=O)C(C)(C)[C@@H]5CC[C@]43C)[C@H]12 [Compound 13, 3-oxours-12-en-28-oic acid]	41.0 ± 2.1	39.7 ± 0.6	45.5 ± 2.7	52.9 ± 0.6	8.1 (≈ 17.8 µM)	18	39.1 ± 2.6	42.7 ± 2.1	51.5 ± 3.7	80.3 ± 3.0	4.0 (≈ 8.8 µM)	8.9	– (no inhibition)	–	85.6 ± 4.2	1.2	–	1.4	1.2	Inhibition rate (100% − melanin synthesis) (B16 melanoma cells [1]; 0.5 μg/ml): 37.4 ± 1.1%
C[C@@H]1CC[C@]2(C(=O)O)CC[C@]3(C)C(=CC[C@@H]4[C@@]5(C)CCC(=O)C(C)(C)[C@@H]5[C@H](O)C[C@]43C)[C@@H]2[C@]1(C)O [Compound 14, 6β,19-dihydroxyurs-12-en-3-oxo-28-oic acid]	6.9 ± 1.8	15.8 ± 1.8	39.5 ± 3.1	67.3 ± 1.4	7.2 (≈ 14.8 µM)	14.8	2.5 ± 8.3	1.2 ± 9.7	44.1 ± 0.4	69.1 ± 10.0	5.3 (≈ 10.9 µM)	10.9	87.6 ± 7.4%	–	66.8 ±11.1	1.4	active	1.1	1.2	–
C[C@@H]1CC[C@]2(C(=O)O)CC[C@]3(C)C(=CC[C@@H]4[C@@]5(C)C[C@@H](O)C(=O)C(C)(C)[C@@H]5CC[C@]43C)[C@@H]2[C@]1(C)O [Compound 15, 2α, 19α-dihydroxy-3-oxo-12-ursen-28-oic acid]	–	–	–	24.2 ± 1.0	> 20.0	> 42.3	–	–	5.6 ± 4.6	11.4 ± 3.9	> 20.0	> 42.3	– (no inhibition)	0.9 ± 0.0	102.1 ± 2.2	1.1	–	–	–	Inhibition rate (100% − cell viability) (B16 melanoma cells [2]; 20 μg/ml): 26.4 ± 1.4%
